Patent publication US20030013684A1, “Agricultural composition” (priority 2001, published 2003)

Key:
[1] = Coprecipitation of a chemical substance with a tannin or chelating agent and a metal salt in water; format: physicochemical; conditions: (+)-catechin 60 mg and lead acetate 60 mg
Description: After stirring for a while, a coprecipitate was formed.
In a similar manner, for the following combinations of a chemical substance and a metal salt, a proportion of the chemical substance taken into a coprecipitate was determined.
Chemical substance: (B) acephate, (C) acetamiprid, (D) urea;
Chelating agent: (Q) sodium ethylenediamine tetraacetate, (R) aminotrimethylenephosphonic acid;
Metal salt: (b) potassium acetate, (c) manganese acetate, (d) aluminum acetate, (e) nickel acetate, (f) cobalt acetate, (g) calcium acetate, (h) magnesium acetate, (i) magnesium chloride and (j) sodium acetate.
After completion of dissolving, the solution was analyzed for dinotefuran. […] After stirring for a while, a coprecipitate was formed. The supernatant was analyzed for dinotefuran A to determine a proportion of dinotefuran taken into the coprecipitate.

[2] = cited from earlier work

## CNC(=N[N+](=O)[O-])NCC1CCOC1 (racemic) [dinotefuran, (RS)-1-methyl-2-nitro-3-[(3-tetrahydrofuryl)methyl]guanidine]
[1]
  proportion of dinotefuran taken into the coprecipitate: 41%

## C/C(=N\C#N)N(C)Cc1ccc(Cl)nc1 [acetamiprid]
[2]
  water solubility: 4200 ppm

## CCOP(=O)(OCC)O/C(=C\Cl)c1ccc(Cl)cc1Cl [CVP, Chlorfenvin-phos]
[2]
  water solubility: 1500 ppm

## COc1nc(NC(C)C)nc(NC(C)C)n1 [promethone]
[2]
  water solubility: 750 ppm

## CCSCc1ccccc1OC(=O)NC [etiofencarb]
[2]
  water solubility: 1800 ppm
